# Laboratory results reported in ChEMBL document CHEMBL1743201, “Casarett and Doull's Toxicology The Basic Science of Poisons, 7th edition” (2008).
# What was measured:
# Format in all cases: ADME
# Cytochrome P450 2C8 = target: T1, Cytochrome P450 2C8 (Homo sapiens, UniProt P10632); assay: Clinically relevant inhibitors of human liver microsomal P450 enzymes, isoform CYP2C8; details: microsomes
# T1 sequence (P10632 whole entry): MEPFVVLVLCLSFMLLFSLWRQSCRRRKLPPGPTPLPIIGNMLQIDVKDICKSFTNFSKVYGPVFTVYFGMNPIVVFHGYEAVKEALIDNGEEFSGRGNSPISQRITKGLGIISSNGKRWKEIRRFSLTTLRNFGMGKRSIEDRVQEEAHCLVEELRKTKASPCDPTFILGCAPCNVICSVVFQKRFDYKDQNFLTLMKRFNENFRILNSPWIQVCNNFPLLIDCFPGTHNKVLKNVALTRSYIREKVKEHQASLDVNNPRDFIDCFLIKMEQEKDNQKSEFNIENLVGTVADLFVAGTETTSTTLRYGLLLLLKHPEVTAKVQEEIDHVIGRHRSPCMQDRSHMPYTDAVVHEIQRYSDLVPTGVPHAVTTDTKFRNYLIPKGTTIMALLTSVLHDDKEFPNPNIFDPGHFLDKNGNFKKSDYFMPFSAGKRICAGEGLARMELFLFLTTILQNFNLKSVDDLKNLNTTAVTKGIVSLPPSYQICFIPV
# Sulfotransferase 1C4 = Sulfotransferase 1C4 (Homo sapiens, UniProt O75897); assay: Major substrate of human cytosolic sulfotransferase SULT1C4
# Sulfotransferase 1E1 = target: T2, Sulfotransferase 1E1 (Homo sapiens, UniProt P49888); assay: Major substrate of human cytosolic sulfotransferase SULT1E1
# T2 sequence (P49888 whole entry): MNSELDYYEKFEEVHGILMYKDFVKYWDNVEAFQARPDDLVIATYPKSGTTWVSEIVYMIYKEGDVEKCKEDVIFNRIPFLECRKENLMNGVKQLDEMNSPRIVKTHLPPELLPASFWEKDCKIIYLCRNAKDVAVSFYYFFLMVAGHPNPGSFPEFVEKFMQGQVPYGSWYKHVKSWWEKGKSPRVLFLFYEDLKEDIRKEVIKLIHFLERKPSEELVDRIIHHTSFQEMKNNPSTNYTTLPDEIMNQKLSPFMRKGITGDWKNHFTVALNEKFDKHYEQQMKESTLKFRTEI
# Sulfotransferase 2A1 = target: T3, Sulfotransferase 2A1 (Homo sapiens, UniProt Q06520); assay: Major substrate of human cytosolic sulfotransferase SULT2A1
# T3 sequence (Q06520 whole entry): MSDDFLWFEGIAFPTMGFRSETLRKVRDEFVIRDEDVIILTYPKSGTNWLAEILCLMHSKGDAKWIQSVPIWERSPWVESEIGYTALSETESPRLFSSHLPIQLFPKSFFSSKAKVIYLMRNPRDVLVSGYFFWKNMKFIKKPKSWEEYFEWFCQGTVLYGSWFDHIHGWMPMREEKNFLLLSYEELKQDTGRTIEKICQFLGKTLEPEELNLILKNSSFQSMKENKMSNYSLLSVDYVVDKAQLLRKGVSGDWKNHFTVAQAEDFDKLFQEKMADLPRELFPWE
# Sulfotransferase 4A1 = target: T4, Sulfotransferase 4A1 (Homo sapiens, UniProt Q9BR01); assay: Major substrate of human cytosolic sulfotransferase SULT4A1_v1
# T4 sequence (Q9BR01 whole entry): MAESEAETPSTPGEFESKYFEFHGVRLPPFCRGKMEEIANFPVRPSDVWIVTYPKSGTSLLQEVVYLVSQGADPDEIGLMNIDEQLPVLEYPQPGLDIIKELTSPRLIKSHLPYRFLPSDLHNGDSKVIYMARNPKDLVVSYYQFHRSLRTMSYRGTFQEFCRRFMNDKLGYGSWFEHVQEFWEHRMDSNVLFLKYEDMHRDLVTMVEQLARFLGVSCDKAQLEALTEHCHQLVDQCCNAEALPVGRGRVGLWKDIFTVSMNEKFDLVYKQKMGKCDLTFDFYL
# Sulfotransferase 1B1 = Sulfotransferase 1B1 (Homo sapiens, UniProt O43704); assay: Major substrate of human cytosolic sulfotransferase SULT1B1
# Sulfotransferase 1A1 = Sulfotransferase 1A1 (Homo sapiens, UniProt P50225); assay: Major substrate of human cytosolic sulfotransferase SULT1A1
# Sulfotransferase 1A3 = Sulfotransferase 1A3 (Homo sapiens, UniProt P0DMM9); assay: Major substrate of human cytosolic sulfotransferase SULT1A3
# [1] = target: T5, UDP-glucuronosyltransferase 1A1 (Homo sapiens, UniProt P22309); assay: Substrate of human UDP-glucuronosyltransferase UGT1A1
# T5 sequence (P22309 whole entry): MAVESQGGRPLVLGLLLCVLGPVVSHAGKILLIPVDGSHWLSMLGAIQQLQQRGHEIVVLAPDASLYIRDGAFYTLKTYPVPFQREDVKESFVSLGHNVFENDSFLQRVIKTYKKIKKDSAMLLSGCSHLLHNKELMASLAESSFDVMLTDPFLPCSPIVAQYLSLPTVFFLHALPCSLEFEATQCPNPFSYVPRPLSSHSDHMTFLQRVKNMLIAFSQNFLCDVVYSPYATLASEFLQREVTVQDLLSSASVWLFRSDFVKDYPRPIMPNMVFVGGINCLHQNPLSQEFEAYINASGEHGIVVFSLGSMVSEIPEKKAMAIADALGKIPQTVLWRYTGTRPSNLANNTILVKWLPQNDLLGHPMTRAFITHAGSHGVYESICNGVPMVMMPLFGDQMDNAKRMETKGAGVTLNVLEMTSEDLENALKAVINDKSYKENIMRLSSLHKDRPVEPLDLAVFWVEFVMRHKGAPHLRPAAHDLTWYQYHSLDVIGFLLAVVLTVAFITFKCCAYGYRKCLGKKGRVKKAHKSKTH
# [2] = target: T6, UDP-glucuronosyltransferase 1A8 (Homo sapiens, UniProt Q9HAW9); assay: Substrate of human UDP-glucuronosyltransferase UGT1A8
# T6 sequence (Q9HAW9 whole entry): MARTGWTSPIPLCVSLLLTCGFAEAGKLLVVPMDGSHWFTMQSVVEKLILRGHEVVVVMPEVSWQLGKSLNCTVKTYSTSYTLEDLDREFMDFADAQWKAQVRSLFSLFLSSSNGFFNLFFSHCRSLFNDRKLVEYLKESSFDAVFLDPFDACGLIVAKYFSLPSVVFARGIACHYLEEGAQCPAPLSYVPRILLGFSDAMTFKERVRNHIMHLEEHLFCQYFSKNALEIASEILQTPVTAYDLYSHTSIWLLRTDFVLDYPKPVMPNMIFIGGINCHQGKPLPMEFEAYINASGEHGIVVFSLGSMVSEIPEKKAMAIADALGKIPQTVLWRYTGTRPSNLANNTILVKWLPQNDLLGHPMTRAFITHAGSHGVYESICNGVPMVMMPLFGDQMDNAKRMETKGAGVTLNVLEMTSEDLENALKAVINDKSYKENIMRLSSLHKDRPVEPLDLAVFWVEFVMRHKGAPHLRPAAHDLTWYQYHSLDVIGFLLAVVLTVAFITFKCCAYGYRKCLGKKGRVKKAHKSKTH
# [3] = target: T7, UDP-glucuronosyltransferase 1A10 (Homo sapiens, UniProt Q9HAW8); assay: Substrate of human UDP-glucuronosyltransferase UGT1A10
# T7 sequence (Q9HAW8 whole entry): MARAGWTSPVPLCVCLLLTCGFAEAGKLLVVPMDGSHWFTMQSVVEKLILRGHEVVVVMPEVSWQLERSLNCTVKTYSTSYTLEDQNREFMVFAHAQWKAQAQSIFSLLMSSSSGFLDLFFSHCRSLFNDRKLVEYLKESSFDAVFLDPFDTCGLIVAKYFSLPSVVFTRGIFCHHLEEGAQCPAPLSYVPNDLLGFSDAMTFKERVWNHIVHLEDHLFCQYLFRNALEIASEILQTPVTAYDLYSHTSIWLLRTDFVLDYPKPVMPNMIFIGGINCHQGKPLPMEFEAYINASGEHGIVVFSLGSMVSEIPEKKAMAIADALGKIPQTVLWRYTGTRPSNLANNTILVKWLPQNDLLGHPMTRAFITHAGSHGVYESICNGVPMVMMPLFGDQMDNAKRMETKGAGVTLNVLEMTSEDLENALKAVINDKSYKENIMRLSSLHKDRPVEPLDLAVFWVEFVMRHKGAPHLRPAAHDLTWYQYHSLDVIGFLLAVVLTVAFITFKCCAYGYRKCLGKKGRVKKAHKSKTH
# [4] = target: T8, UDP-glucuronosyltransferase 1A6 (Homo sapiens, UniProt P19224); assay: Substrate of human UDP-glucuronosyltransferase UGT1A6
# T8 sequence (P19224 whole entry): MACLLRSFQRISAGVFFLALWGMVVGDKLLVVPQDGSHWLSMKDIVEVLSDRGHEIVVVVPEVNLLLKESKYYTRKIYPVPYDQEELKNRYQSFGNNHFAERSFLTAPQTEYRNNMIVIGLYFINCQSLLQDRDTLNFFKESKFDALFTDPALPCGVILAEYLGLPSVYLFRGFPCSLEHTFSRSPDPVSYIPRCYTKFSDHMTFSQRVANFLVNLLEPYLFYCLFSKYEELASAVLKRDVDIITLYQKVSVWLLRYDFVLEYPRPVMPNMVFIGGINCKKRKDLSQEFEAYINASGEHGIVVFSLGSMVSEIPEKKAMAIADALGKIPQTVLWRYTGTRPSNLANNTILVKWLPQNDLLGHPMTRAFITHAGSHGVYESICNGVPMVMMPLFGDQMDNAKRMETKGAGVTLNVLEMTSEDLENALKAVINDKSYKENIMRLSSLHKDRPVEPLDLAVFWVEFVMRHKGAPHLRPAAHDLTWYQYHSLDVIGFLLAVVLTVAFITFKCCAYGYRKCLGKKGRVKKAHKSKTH
# [5] = target: T9, UDP-glucuronosyltransferase 1A9 (Homo sapiens, UniProt O60656); assay: Substrate of human UDP-glucuronosyltransferase UGT1A9
# T9 sequence (O60656 whole entry): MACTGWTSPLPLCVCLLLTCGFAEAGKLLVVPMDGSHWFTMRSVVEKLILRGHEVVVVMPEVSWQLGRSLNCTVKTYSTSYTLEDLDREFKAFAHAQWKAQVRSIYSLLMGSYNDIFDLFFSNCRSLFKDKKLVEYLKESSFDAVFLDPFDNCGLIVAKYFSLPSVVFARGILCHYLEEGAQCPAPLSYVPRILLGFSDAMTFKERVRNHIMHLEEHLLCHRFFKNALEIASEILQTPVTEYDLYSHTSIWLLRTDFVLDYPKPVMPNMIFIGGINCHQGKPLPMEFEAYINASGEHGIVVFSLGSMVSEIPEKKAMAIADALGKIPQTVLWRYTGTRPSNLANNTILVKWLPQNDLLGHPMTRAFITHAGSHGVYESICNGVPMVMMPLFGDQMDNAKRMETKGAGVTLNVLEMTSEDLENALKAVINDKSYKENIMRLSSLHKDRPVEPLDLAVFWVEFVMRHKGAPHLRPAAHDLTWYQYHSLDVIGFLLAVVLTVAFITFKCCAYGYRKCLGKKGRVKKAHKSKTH
# Chain of Sulfotransferase 1A3 (P0DMM9 whole entry): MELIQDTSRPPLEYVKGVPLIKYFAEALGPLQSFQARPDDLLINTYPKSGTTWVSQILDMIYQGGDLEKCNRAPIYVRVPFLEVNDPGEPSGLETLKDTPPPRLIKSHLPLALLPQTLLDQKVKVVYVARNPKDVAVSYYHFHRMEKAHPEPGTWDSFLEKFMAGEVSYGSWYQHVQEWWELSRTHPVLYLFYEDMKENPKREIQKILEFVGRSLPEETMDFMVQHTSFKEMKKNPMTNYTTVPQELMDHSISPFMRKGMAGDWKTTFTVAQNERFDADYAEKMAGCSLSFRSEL
# Chain of Sulfotransferase 1B1 (O43704 whole entry): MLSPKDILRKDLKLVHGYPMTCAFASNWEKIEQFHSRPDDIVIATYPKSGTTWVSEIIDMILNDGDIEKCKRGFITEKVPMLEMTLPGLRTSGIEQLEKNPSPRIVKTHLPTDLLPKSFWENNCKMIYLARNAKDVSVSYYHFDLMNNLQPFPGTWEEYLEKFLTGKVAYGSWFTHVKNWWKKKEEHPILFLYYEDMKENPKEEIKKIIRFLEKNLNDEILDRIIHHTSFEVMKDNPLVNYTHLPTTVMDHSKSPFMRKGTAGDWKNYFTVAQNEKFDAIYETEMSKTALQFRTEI
# Chain of Sulfotransferase 1A1 (P50225 whole entry): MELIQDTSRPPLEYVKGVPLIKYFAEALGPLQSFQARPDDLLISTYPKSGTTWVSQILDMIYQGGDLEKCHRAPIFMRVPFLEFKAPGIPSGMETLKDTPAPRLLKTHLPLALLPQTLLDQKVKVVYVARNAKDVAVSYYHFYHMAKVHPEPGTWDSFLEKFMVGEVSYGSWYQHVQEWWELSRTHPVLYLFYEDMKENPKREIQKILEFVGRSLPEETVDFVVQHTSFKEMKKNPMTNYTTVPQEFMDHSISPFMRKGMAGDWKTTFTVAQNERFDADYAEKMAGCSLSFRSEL
# Chain of Sulfotransferase 1C4 (O75897 whole entry): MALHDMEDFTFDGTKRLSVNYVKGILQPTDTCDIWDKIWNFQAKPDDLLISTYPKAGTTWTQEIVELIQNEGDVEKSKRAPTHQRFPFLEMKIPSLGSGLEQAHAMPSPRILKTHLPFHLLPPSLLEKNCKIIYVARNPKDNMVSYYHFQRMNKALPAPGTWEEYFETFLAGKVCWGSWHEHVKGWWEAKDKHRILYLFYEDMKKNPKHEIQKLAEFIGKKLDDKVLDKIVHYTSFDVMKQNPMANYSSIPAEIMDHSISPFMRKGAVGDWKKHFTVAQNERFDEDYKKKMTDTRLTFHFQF
structure (smiles),measurement,setting,value
CCc1ccc(CCOc2ccc(CC3SC(=O)NC3=O)cc2)nc1 (stereo unspecified) [PIOGLITAZONE],Activity,Cytochrome P450 2C8,Inhibitor
C[C@]12CC[C@@H]3c4ccc(O)cc4CC[C@H]3[C@@H]1CCC2=O [ESTRONE],Activity,Sulfotransferase 1C4,Substrate
same,Activity,Sulfotransferase 1E1,Substrate
same,Activity,Sulfotransferase 2A1,Substrate
same,Activity,Sulfotransferase 4A1,Substrate
NC(Cc1ccc(Oc2ccc(O)c(I)c2)c(I)c1)C(=O)O (stereo unspecified) [DIIODOTHYRONINE],Activity,Sulfotransferase 1B1,Substrate
same,Activity,Sulfotransferase 1A1,Substrate
N[C@@H](Cc1ccc(Oc2cc(I)c(O)c(I)c2)c(I)c1)C(=O)O [REVERSE TRIIODOTHYRONINE],Activity,Sulfotransferase 1B1,Substrate
CC(C)(C)NCC(O)c1ccc(O)c(CO)c1 (stereo unspecified) [ALBUTEROL],Activity,Sulfotransferase 1A3,Substrate
NCCc1ccc(O)c(O)c1 [DOPAMINE],Activity,Sulfotransferase 1A3,Substrate
same,Activity,Sulfotransferase 1B1,Substrate
same,Activity,Sulfotransferase 1A1,Substrate
O=C(c1ccc(OCCN2CCCCC2)cc1)c1c(-c2ccc(O)cc2)sc2cc(O)ccc12 [RALOXIFENE],Activity,[1],Substrate
same,Activity,[2],Substrate
same,Activity,[3],Substrate
NC[C@H](O)c1ccc(O)c(O)c1 [NOREPINEPHRINE],Activity,Sulfotransferase 1A3,Substrate
CC(CCc1ccc(O)cc1)NCCc1ccc(O)c(O)c1 (stereo unspecified) [DOBUTAMINE],Activity,Sulfotransferase 1A3,Substrate
OCc1ccc2ccc3cccc4ccc1c2c34,Activity,Sulfotransferase 1A3,Substrate
same,Activity,Sulfotransferase 1C4,Substrate
same,Activity,Sulfotransferase 2A1,Substrate
Cc1c(C)c2c(c(C)c1O)CCC(C)(COc1ccc(CC3SC(=O)NC3=O)cc1)O2 (stereo unspecified) [TROGLITAZONE],Activity,Sulfotransferase 1A1,Substrate
same,Activity,[2],Substrate
same,Activity,[3],Substrate
Oc1cccc2ccccc12 [1-NAPHTHOL],Activity,Sulfotransferase 1E1,Substrate
same,Activity,[4],Substrate
same,Activity,[3],Substrate
N[C@@H](Cc1cc(I)c(Oc2ccc(O)c(I)c2)c(I)c1)C(=O)O [LIOTHYRONINE],Activity,Sulfotransferase 1B1,Substrate
same,Activity,Sulfotransferase 4A1,Substrate
same,Activity,Sulfotransferase 1A1,Substrate
N[C@@H](Cc1cc(I)c(Oc2cc(I)c(O)c(I)c2)c(I)c1)C(=O)O [LEVOTHYROXINE],Activity,Sulfotransferase 1B1,Substrate
same,Activity,Sulfotransferase 4A1,Substrate
same,Activity,[1],Substrate
CC#C[C@]1(O)CC[C@H]2[C@@H]3CCc4cc(O)ccc4[C@H]3CC[C@@]21C [ESTROGEN],Activity,[3],Substrate
O=c1c(O)c(-c2ccc(O)c(O)c2)oc2cc(O)cc(O)c12 [QUERCETIN],Activity,Cytochrome P450 2C8,Inhibitor
CC(C)c1nc(N(C)S(C)(=O)=O)nc(-c2ccc(F)cc2)c1/C=C/[C@@H](O)C[C@@H](O)CC(=O)O [ROSUVASTATIN],Activity,Cytochrome P450 2C8,Inhibitor
CC(C)(O)c1ccccc1CC[C@@H](SCC1(CC(=O)O)CC1)c1cccc(/C=C/c2ccc3ccc(Cl)cc3n2)c1 [MONTELUKAST],Activity,Cytochrome P450 2C8,Inhibitor
NS(=O)(=O)c1cc(C(=O)O)c(NCc2ccco2)cc1Cl [FUROSEMIDE],Activity,[2],Substrate
same,Activity,[5],Substrate
same,Activity,[3],Substrate
Cc1ccc(C)c(OCCCC(C)(C)C(=O)O)c1 [GEMFIBROZIL],Activity,Cytochrome P450 2C8,Inhibitor
Nc1ccc2ccccc2c1 [NAPHTHYLAMINE],Activity,Sulfotransferase 4A1,Substrate
